This is an account of results in ChEMBL document CHEMBL1201862, “PubChem BioAssay data set” (2004).

Test systems include EKVX; SK-MEL-5; NCI-H460; NCI/ADR-RES; COLO 205; TK-10; A549; UO-31; KM12; MOLT-4; K562; HT-29; MCF7; M14; SF-295; HCC 2998; SN12C; SK-MEL-2; SF-268; MDA-N.
Experiment in all cases: NCI tumour cell line growth inhibition, 48 h

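Where inhibition never reached the appropriate level, the endpoint shown equals the highest concentration tested. Otherwise, values were interpolated linearly from a five-concentration, 48-hour dose response in 96-well plates. GI50: concentration for 50% inhibition of growth.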 Calls of active or inactive are those of the source. Rule as the data show it: active = GI50 up to about 1.1 µM and inactive = higher.

For the compound `Nc1nc(NNc2cccc(F)c2)cc(=O)[nH]1`, the GI50 in the assay with EKVX was > 100 µM (inactive); with SK-MEL-5 it was 42.7 µM (inactive); in the assay on NCI-H460, 44 µM (inactive); in the assay with NCI/ADR-RES, 44.9 µM (inactive); in the assay on COLO 205, 23.3 µM (inactive); with TK-10, > 100 µM (inactive). The GI50 was 29.6 µM (inactive) in the assay with A549; 89.1 µM (inactive) in the assay on UO-31; 22.4 µM (inactive) in the assay on KM12; 27.7 µM (inactive) with MOLT-4; 36.1 µM (inactive) in the assay on K562; 22.5 µM (inactive) in the assay on HT-29. Besides, the GI50 with MCF7 is 29.5 µM (inactive); in the assay with M14, 56.5 µM (inactive); in the assay with SF-295, 33.3 µM (inactive); in the assay on HCC 2998 it was 35.5 µM (inactive); in the assay on SN12C, 65.8 µM (inactive).

As for `C[C@@H]1OC(=O)C[C@H]2CC(=O)N(CCC3CN(S(=O)(=O)C(F)(F)F)c4ccc(Cc5ccc6c(c5)C(CCN5C[C@H]7[C@@H](CC(=O)O[C@H]7C)CC5=O)CN6S(=O)(=O)C(F)(F)F)cc43)C[C@@H]21` (stereo partly specified), the GI50 with EKVX, in the assay with SK-MEL-5, in the assay with NCI-H460, with NCI/ADR-RES, with COLO 205 and in the assay on TK-10 was > 100 µM (inactive) in each case. The GI50 in the assay on A549, in the assay on SK-MEL-2, in the assay with UO-31, with KM12, in the assay on MOLT-4 and in the assay with K562 was > 100 µM (inactive) throughout. The GI50 in the assay on MCF7, with SF-268, with M14, with SF-295 and with HCC 2998 was > 100 µM (inactive) in each case.

In the case of `C[C@]12CCC(=O)C=C1CC[C@@H]1C2CC[C@]2(C)c3nn(-c4ccccc4)nc3CC12` (stereo partly specified), the GI50 in the assay on EKVX, in the assay with SK-MEL-5, with NCI-H460, in the assay with COLO 205, in the assay with TK-10 and in the assay on A549 was > 100 µM (inactive) in each case. The GI50 in the assay on SK-MEL-2, in the assay on UO-31, in the assay with KM12, in the assay with MOLT-4, with K562 and in the assay with HT-29 was > 100 µM (inactive) in each case. Also, the GI50 in the assay on SF-268, in the assay on M14, in the assay with SF-295, in the assay with HCC 2998 and in the assay with SN12C was > 100 µM (inactive) in each case.

In the case of `N#Cc1nc(C(=O)c2ccccc2)oc1N`, the GI50 in the assay with EKVX is 65.5 µM (inactive); in the assay on SK-MEL-5, > 100 µM (inactive); with MDA-N it was > 100 µM (inactive); in the assay with TK-10 it was > 100 µM (inactive); in the assay with A549, > 100 µM (inactive); in the assay with SK-MEL-2 it was > 100 µM (inactive). Moreover, the GI50 with KM12, with MOLT-4, in the assay on K562, in the assay on HT-29, in the assay with MCF7 and with SF-268 was > 100 µM (inactive) throughout. Besides, the GI50 in the assay on M14 and in the assay with SN12C was > 100 µM (inactive) each time.

For `CCc1cccc(CC)c1NC(=O)C1=C(C)NC(C)=C(C(=O)Nc2c(CC)cccc2CC)C1c1ccc([N+](=O)[O-])cc1`, the GI50 with EKVX was 23.5 µM (inactive); with SK-MEL-5, 15.1 µM (inactive); with NCI-H460 it was 17.5 µM (inactive); in the assay with COLO 205, 18 µM (inactive); in the assay with TK-10 it was 30.4 µM (inactive); in the assay on A549 it was 23 µM (inactive). The GI50 in the assay on SK-MEL-2 was 20 µM (inactive); in the assay on UO-31, 23.2 µM (inactive); with KM12, 18 µM (inactive); with MOLT-4, 14.7 µM (inactive); in the assay with K562 it was 19.1 µM (inactive); with HT-29, 17.1 µM (inactive). The GI50 in the assay on SF-268 was 33.7 µM (inactive); in the assay on M14 it was 17.5 µM (inactive); with SF-295, 15.5 µM (inactive); with HCC 2998, 36.2 µM (inactive); in the assay with SN12C, 46.5 µM (inactive).

For the compound `CCCNC(=O)Nc1ccc2c(c1)Cc1cc(N(CCCl)CCCl)ccc1-2`, the GI50 was 18.6 µM (inactive) in the assay on EKVX; 13.7 µM (inactive) in the assay on SK-MEL-5; 7.16 µM (inactive) with NCI-H460; 36.2 µM (inactive) in the assay with NCI/ADR-RES; 8.32 µM (inactive) with COLO 205; 61.9 µM (inactive) in the assay on TK-10. For the same compound, the GI50 is 23.9 µM (inactive) in the assay on A549; 29.2 µM (inactive) with SK-MEL-2; 17.4 µM (inactive) in the assay with UO-31; 22 µM (inactive) in the assay with KM12; 10.9 µM (inactive) in the assay on K562; 3.24 µM (inactive) in the assay with HT-29. For the same compound, the GI50 in the assay with MCF7 was 8.73 µM (inactive); in the assay on SF-268 it was 21.8 µM (inactive); in the assay on M14, 79.4 µM (inactive); with SF-295 it was 14.2 µM (inactive); in the assay with HCC 2998, 28.2 µM (inactive); in the assay on SN12C, 33 µM (inactive).

For `Cc1cc(NC(=O)NC(=O)c2ccccc2[N+](=O)[O-])ccc1Oc1ncc(Cl)cn1`, the GI50 was 0.0362 µM (active) with SK-MEL-5; 0.0548 µM (active) in the assay on NCI-H460; 0.107 µM (active) with COLO 205; < 0.01 µM (active) with MDA-N; 19.8 µM (inactive) in the assay on TK-10; 0.125 µM (active) with A549. For the same compound, the GI50 is 0.0889 µM (active) with UO-31; 0.0519 µM (active) in the assay on KM12; 0.0702 µM (active) in the assay with MOLT-4; 0.037 µM (active) in the assay with K562; 0.0488 µM (active) with HT-29; 0.037 µM (active) in the assay with MCF7. Besides, the GI50 is 1.9 µM (inactive) in the assay on SF-268; 0.0782 µM (active) with M14; 0.0598 µM (active) in the assay with SF-295; 0.146 µM (active) in the assay on HCC 2998; 0.492 µM (active) in the assay with SN12C.

On to `CCCCOC(=O)C1C2CCC(O2)C1C(=O)OCCCC` (stereo unspecified), for which the GI50 in the assay on EKVX was > 100 µM (inactive); with SK-MEL-5, > 100 µM (inactive); in the assay on NCI-H460, 4.17 µM (inactive); in the assay on COLO 205, > 42.5 µM (inactive); in the assay on TK-10 it was > 100 µM (inactive); in the assay on A549 it was > 45.4 µM (inactive). In addition, the GI50 is > 100 µM (inactive) in the assay with SK-MEL-2; > 100 µM (inactive) in the assay on UO-31; > 100 µM (inactive) in the assay with KM12; > 83.4 µM (inactive) in the assay on MOLT-4; > 100 µM (inactive) in the assay with K562; > 45.7 µM (inactive) in the assay with HT-29. Also, the GI50 in the assay with SF-268 was > 55.8 µM (inactive); in the assay on M14, > 52.1 µM (inactive); in the assay with SF-295 it was > 100 µM (inactive); with HCC 2998, > 62.7 µM (inactive); in the assay on SN12C, > 73.3 µM (inactive).

For the compound `CCOc1ccc(/N=C/c2ccc3ccccc3n2)cc1`, the GI50 in the assay on EKVX, in the assay on SK-MEL-5, in the assay with NCI-H460, with COLO 205, in the assay with TK-10 and in the assay on A549 was > 100 µM (inactive) in each case. The GI50 is > 100 µM (inactive) in the assay on SK-MEL-2; 61.8 µM (inactive) in the assay with UO-31; > 100 µM (inactive) in the assay with KM12; > 100 µM (inactive) with MOLT-4; 49.8 µM (inactive) with K562; > 100 µM (inactive) in the assay with HT-29. Further, the GI50 with SF-268, with M14, with SF-295, with HCC 2998 and in the assay with SN12C was > 100 µM (inactive) throughout.

For the compound `COC(=O)c1[nH]c(=S)[nH]c(=O)c1-c1ccc(Cl)cc1`, the GI50 with EKVX, with SK-MEL-5, in the assay on NCI-H460, in the assay with COLO 205, in the assay with TK-10 and with A549 was > 50 µM (inactive) throughout. Also, the GI50 in the assay on SK-MEL-2, in the assay with UO-31, in the assay on KM12, in the assay with MOLT-4, in the assay on K562 and in the assay on HT-29 was > 50 µM (inactive) in each case. Further, the GI50 with SF-268, with M14, in the assay on SF-295, in the assay with HCC 2998 and in the assay with SN12C was > 50 µM (inactive) throughout.

Turning to `COC1OC(C)C(NC(=O)OCC(Cl)(Cl)Cl)C2OC(C)(C)OC12` (stereo unspecified), the GI50 in the assay on EKVX, in the assay with SK-MEL-5, in the assay on NCI-H460, with NCI/ADR-RES, with COLO 205 and in the assay with TK-10 was > 100 µM (inactive) each time. Also, the GI50 in the assay with A549, with UO-31, in the assay with KM12, in the assay with MOLT-4, in the assay with K562 and in the assay on HT-29 was > 100 µM (inactive) throughout. Besides, the GI50 in the assay on MCF7, in the assay with SF-268, in the assay with M14, with SF-295, with HCC 2998 and in the assay with SN12C was > 100 µM (inactive) in each case.
